The numbers were not newly measured in patent publication US10039772B2, “Methods and compositions for treating alcohol use disorders” (priority 2015, dated 2018), which cites them from elsewhere.

The first data set concerns 11β-HSD1, 11β-HSD2. The settings on record: 11β-HSD isozyme specificity per cited reference; cited from earlier work.
With `Cc1c(Cl)cccc1S(=O)(=O)Nc1nc(CC(=O)N2CCN(C)CC2)cs1` [Number 5], the Specificity is on record as 11β- HSD1 > 2.

For `CCN(CC)C(=O)Cc1csc(NS(=O)(=O)c2cccc(Cl)c2C)n1` [Number 6], the Specificity is on record as 11β- HSD1 > 2.

As for `Cc1c(Cl)cccc1S(=O)(=O)Nc1nc(CCN2CCOCC2=O)cs1` [Number 7, 3-chloro-2-methyl-N-{4-[2-(3-oxo-4-morpholinyl)ethyl]-1,3-thiazol-2-yl}benzenesulfonamide], the Specificity was 11β- HSD1 > 2.

Turning to `COc1cc(C(=O)N2CCC(n3c(=O)[nH]c4ccccc43)CC2)ccc1C` [Number 8], the Specificity is recorded as 11β- HSD1 > 2.

As for `CCC1(CC)OC(N[C@@H](C)c2ccccc2C(F)(F)F)=NC1=O` [Number 9], the Specificity is given as 11β- HSD1 > 2.

Take `C[C@H](NC1=NC(=O)[C@@](C)(C(C)(C)O)S1)c1ccc(F)cc1` [Number 10]: the Specificity is given as 11β- HSD1 > 2.

For `C[C@H](NC1=NC(=O)[C@@](C)(C(F)(F)F)S1)c1ccccc1F` [Number 11], the Specificity is on record as 11β- HSD1 > 2.

For `CCN(C(=O)c1ccc([C@@](C)(O)C(F)(F)F)cc1)C1CCCCC1` [Number 16], the Specificity is given as 11β- HSD1 > 2.

On to `CC(C)N(c1ccc([C@](C)(O)C(F)(F)F)cc1)S(=O)(=O)c1cc(Cl)ccc1Cl` [Number 20], for which the Specificity is reported as 11β- HSD1 > 2.

`Cn1c(-c2ccccc2)nnc1C12CC3CC(CC(C3)C1)C2` [Number 23]: the Specificity was 11β- HSD1 > 2.

On to `COc1c(-c2nnc(-c3ccccc3C(F)(F)F)n2C)ccc2ccc(Cl)cc12` [Number 24], for which the Specificity was 11β- HSD1 > 2.

As for `F[C@H]1C[C@](c2ccc(Cl)cc2)(c2nnc(C3CC3)n2C2CC2)C1` [Number 25], the Specificity is 11β- HSD1 > 2.

Regarding `Cn1c(-c2ccc(-c3cccc(S(C)(=O)=O)c3)cc2Cl)nnc1C1(c2ccc(Cl)cc2)CCC1` [Number 26], the Specificity is 11β- HSD1 > 2.

For `Cn1c(-c2ccc(-c3cnccn3)cc2Cl)nnc1[C@]1(c2ccc(Cl)cc2)C[C@@H](F)C1` [Number 27], the Specificity was 11β- HSD1 > 2.

Take `CCCCCC12CCC(c3nnc(-c4ccccc4C(F)(F)F)n3C)(CC1)CC2` [Number 28]: the Specificity was 11β- HSD1 > 2.

In the case of `CCS(=O)(=O)CCCC12CCC(c3nnc(-c4ccccc4C(F)(F)F)n3C)(CC1)CC2` [Number 29], the Specificity is reported as 11β- HSD1 > 2.

Take `CC(C)(C)c1ccc(S(=O)(=O)N2C[C@H]3C[C@@H]2CN3C2CCCC2)cc1` [Number 30]: the Specificity is on record as 11β- HSD1 > 2.

In the case of `Cn1c(-c2ccccc2C(F)(F)F)nnc1C12CCC(c3nc(-c4ccc(C(O)C(F)(F)F)cc4)no3)(CC1)CC2` (stereo not drawn) [Number 31], the Specificity is 11β- HSD1 > 2.

Regarding `Cn1c(-c2ccccc2C(F)(F)F)nnc1C12CCC(c3nc(-c4ccc(F)cc4)no3)(CC1)CC2` [Number 33], the Specificity is 11β- HSD1 > 2.

Regarding `CCN(CC)C(=O)Cc1cccc(NS(=O)(=O)c2cccc(Cl)c2C)n1` [Number 34], the Specificity is given as 11β- HSD1 > 2.

Regarding `Cc1cc(N)nc(NS(=O)(=O)c2ccc(-c3ccc(C#N)cc3)cc2)c1` [Number 36], the Specificity was 11β- HSD1 > 2.

Consider `N#Cc1ccc(-c2ccc(S(=O)(=O)Nc3cccc(CO)n3)cc2)cc1` [Number 39], for which the Specificity is 11β- HSD1 > 2.

Consider `O=C(CS(=O)(=O)c1ccccc1)c1ccc(C(F)(F)F)cc1` [Number 40], for which the Specificity is on record as 11β- HSD1 > 2.

For `O=S(=O)(c1ccc(Cl)c(Cl)c1)N1CCN(c2ncccc2C(F)(F)F)CC1` [Number 41], the Specificity is 11β- HSD1 > 2.

For `C[C@@H]1CN(c2ncc(F)cc2C(F)(F)F)CCN1S(=O)(=O)c1cccc(-n2cncn2)c1` [Number 42], the Specificity is 11β- HSD1 > 2.

On to `C[C@@H]1CN(c2ccc(F)cc2C(F)(F)F)CCN1S(=O)(=O)c1cccc([C@@](C)(O)C(F)(F)F)c1` [Number 43], for which the Specificity is 11β- HSD1 > 2.

With `C[C@@H]1CN(c2ccc(F)cc2C(F)(F)F)CCN1S(=O)(=O)c1ccc([C@@](O)(C(N)=O)C(F)(F)F)s1` [Number 45], the Specificity is reported as 11β- HSD1 > 2.

With `CCCSc1ncccc1C(=O)NC1CCCCC1` [Number 46], the Specificity is on record as 11β- HSD1 > 2.

Consider `O=C(N[C@H]1C2CC3CC1C[C@@](O)(C3)C2)c1cnc(N2CCOCC2)nc1C1CC1` [Number 48], for which the Specificity was 11β- HSD1 > 2.

For `O=C(N[C@H]1C2CC3CC1C[C@@](O)(C3)C2)c1cnc(N[C@H]2CCOC2)nc1C1CCCC1` [Number 49], the Specificity was 11β- HSD1 > 2.

`CSc1nc(N2C[C@@H]3[C@H](C2)[C@H]3C(=O)O)ccc1C(=O)NC1C2CC3CC(C2)CC1C3` (stereo partly drawn) [Number 50]: the Specificity is given as 11β- HSD1 > 2.

With `COc1ccc(N2C(=O)C(C)(C)C2c2ccccc2OC)cc1` (stereo not drawn) [Number 51], the Specificity is recorded as 11β- HSD1 > 2.

Regarding `CC(C)(C)c1c(C(=O)NC2C3CC4CC(C3)CC2C4)cnn1-c1ccc(C(=O)O)cc1` (stereo not drawn) [Number 52], the Specificity is listed as 11β- HSD1 > 2.

On to `CC1(C)C(=O)N(c2cccc(S(C)(=O)=O)c2)C1c1cccc2nccnc12` (stereo not drawn) [Number 53], for which the Specificity was 11β- HSD1 > 2.

As to `Nc1c(Cl)cc(C(=O)N(C2CCCC2)C2CC2)cc1Cl` [Number 54], the Specificity is given as 11β- HSD1 > 2.

As for `C[C@@H]1CC(n2c(=O)[nH]c3ccccc32)C[C@@H](C)N1C(=O)c1cc(Cl)c(N)c(Cl)c1` (stereo partly drawn) [Number 55], the Specificity is given as 11β- HSD1 > 2.

Regarding `O=C1C(Cc2ccccc2)CCN1C1CCCCC1` (stereo not drawn) [Number 56], the Specificity was 11β- HSD1 > 2.

In the case of `N#Cc1cccnc1N1CCN(CC(=O)NC2C3CC4CC(C3)CC2C4)CC1` (stereo not drawn) [Number 58], the Specificity was 11β- HSD1 > 2.

As to `O=C(CN1CCN(c2ccc(C(F)(F)F)cn2)CC1)NC1C2CC3CC1CC(O)(C3)C2` (stereo not drawn) [Number 59], the Specificity was 11β- HSD1 > 2.

Take `CC(C)(C(=O)NC1C2CC3CC1CC(C(N)=O)(C3)C2)N1CCN(c2ccc(C(F)(F)F)cn2)CC1` (stereo not drawn) [Number 60]: the Specificity is recorded as 11β- HSD1 > 2.

For the molecule `CC(C)(Cc1ccc(Cl)cc1)C(=O)NC12CCC(C(N)=O)(CC1)CC2` [Number 61], the Specificity is 11β- HSD1 > 2.

For the molecule `CC(C)(Oc1ccc(-n2cccn2)cn1)C(=O)N[C@H]1C2CC3CC1C[C@@](C(N)=O)(C3)C2` [Number 63], the Specificity is recorded as 11β- HSD1 > 2.

As to `CC1CCN(C(=O)c2cccc(CSc3c(Cl)cccc3Cl)n2)CC1` [Number 68], the Specificity is on record as 11β- HSD1 > 2.

For `N#Cc1c(O)nc(SCc2ccccc2Cl)nc1-c1ccccc1` [Number 69], the Specificity is given as 11β- HSD1 > 2.

As for `Cc1ccc(-c2cccc(C(=O)N3CCCC(C)(C)C3)n2)cc1F` [Number 71], the Specificity was 11β- HSD1 > 2.

As for `Cc1c(Cl)cccc1Oc1cccn2c(C34CCC(O)(CC3)CC4)nnc12` [Number 72], the Specificity was 11β- HSD1 > 2.

`O=C(O)CC1C2CC3CC(C2)CC1C3` (stereo not drawn) [Number 73]: the Specificity is recorded as 11β- HSD1 > 2.

On to `O=C(O)CC1(c2ccc(F)cc2)C2CCCC1CCC2` (stereo not drawn) [Number 74], for which the Specificity is reported as 11β- HSD1 > 2.

Turning to `O[C@]12CC[C@](c3nnc4c(Oc5ccccc5Cl)cccn43)(CC1)C2` [Number 75], the Specificity is 11β- HSD1 > 2.

With `O=C(NC1C2CC3CC(C2)CC1C3)N1CCCCC1` (stereo not drawn) [Number 76], the Specificity is given as 11β- HSD1 > 2.

With `O=C(O)C[C@H]1CC2(CCN(C(=O)NC3C4CC5CC(C4)CC3C5)CC2)c2c(Br)cccc21` (stereo partly drawn) [Number 77], the Specificity is on record as 11β- HSD1 > 2.

In the case of `O=C(OC1C2CC3CC(C2)CC1C3)N1CCCCC1` (stereo not drawn) [Number 78], the Specificity was 11β- HSD1 > 2.

Consider `N#Cc1cccnc1N[C@@H]1CCN(C(=O)O[C@H]2C3CC4CC2C[C@@](C(N)=O)(C4)C3)C1` [Number 79], for which the Specificity is recorded as 11β- HSD1 > 2.

As for `Cc1c(Cl)cccc1S(=O)(=O)NCc1ccc(C(=O)N2C[C@@H](C)O[C@@H](C)C2)cc1` [Number 82], the Specificity was 11β- HSD1 > 2.

For `CCCN(C(=O)c1ccc(CNS(=O)(=O)c2cccc(Cl)c2)cc1)C1CCCCCC1` [Number 83], the Specificity is on record as 11β- HSD1 > 2.

In the case of `CCN(CC)C(=O)C1CCCN(S(=O)(=O)c2cccc(Cl)c2C)C1` (stereo not drawn) [Number 84], the Specificity was 11β- HSD1 > 2.

Regarding `CN(C(=O)c1csc(CNS(=O)(=O)c2cccc(Cl)c2)n1)C1CCCCCC1` [Number 85], the Specificity is 11β- HSD1 > 2.

Still in this data set, the particulars now being: cited from earlier work.
For the molecule `CC(C)[C@]1(C)SC(N[C@H]2C[C@@H]3CC[C@H]2C3)=NC1=O` [Number 13], the Specificity was 11β- HSD1 > 2.

Regarding `CC(C)[C@]1(C)SC(N[C@H]2C[C@H]3C[C@@H]2C[C@@H]3O)=NC1=O` [Number 14], the Specificity is reported as 11β- HSD1 > 2.

As for `C[C@](O)(c1ccc(C(=O)N(C2CC2)C2CCN(CC3(C(N)=O)CC3)CC2)cc1)C(F)(F)F` [Number 18], the Specificity is given as 11β- HSD1 > 2.

`C[C@](O)(c1ccc(C(=O)N(C2CC2)C2CCC(CCC(N)=O)(c3ccccc3)CC2)cc1)C(F)(F)F` (stereo partly drawn) [Number 19]: the Specificity is listed as 11β- HSD1 > 2.

For the molecule `CO[C@@H]1C[C@H]2CC[C@@H](C1)N2S(=O)(=O)c1ccc(C(C)(C)C)cc1` [Number 32], the Specificity is 11β- HSD1 > 2.

In the case of `C[C@@H]1CN(c2ccc(F)cc2C(F)(F)F)CCN1S(=O)(=O)c1ccc(C(N)=O)cc1Cl` [Number 44], the Specificity is given as 11β- HSD1 > 2.

As for `CCCSc1nc(N2CCC[C@@H](CC(=O)O)C2)ccc1C(=O)NC1CCCCC1` [Number 47], the Specificity was 11β- HSD1 > 2.

In the case of `CC(C(=O)NC1C2CC3CC1CC(O)(C3)C2)N1CCN(c2ccc(C(F)(F)F)cn2)CC1` (stereo not drawn) [Number 66], the Specificity was 11β- HSD1 > 2.

Take `CC1CCN(C(=O)c2ccc(CSc3ccc(Cl)cc3)cc2)CC1` [Number 67]: the Specificity is 11β- HSD1 > 2.

Consider `N#Cc1ncccc1CSc1nc(O)c(C#N)c2c1COCC2` [Number 70], for which the Specificity is recorded as 11β- HSD1 > 2.

Turning to `Cc1cccc(N2CCC(C)(c3ccccc3)OC2=O)c1` (stereo not drawn) [Number 80], the Specificity is listed as 11β- HSD1 > 2.

`C[C@@H](c1ccc(-c2ccc(F)cc2F)cc1)N1CC[C@](CCO)(c2ccc(F)cc2)OC1=O` [Number 81]: the Specificity was 11β- HSD1 > 2.
